Key:
[1] = Stability at high temperature of the crystalline form; assay type: physicochemical; conditions: up to its melting point
[2] = assay type: physicochemical
[3] = Loss in mass (dehydration) of monohydrate form C at low humidity; assay type: physicochemical; conditions: below 50% humidity and between 20° C. and 80° C.; 1 mole of water/mole of the acid
Description: According to another aspect of the present invention, form A can also be obtained from another monohydrate crystalline form known hereinbelow as form C. Below 50% humidity and between 20° C. and 80° C., form C undergoes a loss in mass of 3.7% by weight (1 mole of water/mole of the acid). […] Form B is obtained more particularly by heating form C to 70° C. or from form C held at 25° C. at 0% humidity.

Question: With `COc1ccc2nccc([C@@H](O)CC[C@@H]3CCN(CCSc4cccs4)C[C@@H]3C(=O)O)c2c1` [Form A, (3R,4R)-4-[3-(S)-hydroxy-3-(6-methoxyquinolin-4-yl)propyl]-1-[2-(2-thienylthio)ethyl]piperidine-3-carboxylic acid] as the molecule, how does the “stability at high temperature” value [1] read?
Answer: stable at high temperature, namely up to its melting point

Question: And the hygroscopicity ([2]; solid crystalline form)?
Answer: not hygroscopic

Question: And the state after storage ([2]; storage at 97% relative humidity for 11 weeks at 20° C.)?
Answer: still anhydrous and stable

Question: With `COc1ccc2nccc([C@@H](O)CC[C@@H]3CCN(CCSc4cccs4)C[C@@H]3C(=O)O)c2c1` [Form C, (3R,4R)-4-[3-(S)-hydroxy-3-(6-methoxyquinolin-4-yl)propyl]-1-[2-(2-thienylthio)ethyl]piperidine-3-carboxylic acid] as the molecule, how does the “loss in mass (dehydration to form B)” value [3] read?
Answer: 3.7 % by weight

— patent US6982334B2, “Crystalline form of (3R,4R)-4-[3-(S)-hydroxy-3-(6-methoxyquinolin-4-yl)propyl]-1-[2-(2-thienylthio)ethyl]piperindine-3-carboxylic acid” (Aventis Pharma S.A., priority 2002, dated 2006)
